Test results taken from US20080312192A1, “Diaryl Urea Derivatives in the Treatment of Protein Kinase Dependent Diseases” (priority 2003, published 2008).

Assays:
RET = target: T1, RET (Homo sapiens, UniProt P07949); assay: RET kinase inhibition (33P incorporation into poly(Glu,Tyr), GST-wtRET or GST-RET-Men2B); type: biochemical
T1 construct: expresses the amino acid region 658-1072 (Swiss prot No. Q9BTB0); made in house; host or cells: Sf9 insect cells (baculovirus, vector pFB-GSTX3)
T1 sequence (P07949 658-1072 isoform P07949-2): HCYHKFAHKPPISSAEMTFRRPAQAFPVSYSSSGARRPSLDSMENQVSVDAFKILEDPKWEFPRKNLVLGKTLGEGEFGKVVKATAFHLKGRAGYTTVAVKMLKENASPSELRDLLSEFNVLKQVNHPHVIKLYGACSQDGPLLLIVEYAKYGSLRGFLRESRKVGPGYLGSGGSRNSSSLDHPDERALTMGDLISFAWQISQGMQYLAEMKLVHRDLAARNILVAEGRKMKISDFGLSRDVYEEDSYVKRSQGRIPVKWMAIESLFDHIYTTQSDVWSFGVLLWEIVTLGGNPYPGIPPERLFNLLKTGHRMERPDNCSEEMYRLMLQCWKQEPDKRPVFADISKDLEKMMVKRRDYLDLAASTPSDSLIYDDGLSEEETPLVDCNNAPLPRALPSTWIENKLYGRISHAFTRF
Procedure: RET kinase inhibition is determined as follows:
The coding sequence for the cytoplasmic domain of wtRET is amplified by PCR from a cDNA library using specific primers. RET-Men2B is generated through site-directed mutagenesis resulting in the M918T mutation. The amplified DNA fragments and the pFB-GSTX3 vector are made compatible for ligation by digestion with SalI and KpnI. Ligation of these DNA fragments results in the baculovirus donor plasmids […] and pFB-GX3-RET-Men2B, respectively.
Production of virus: The baculovirus donor plasmids containing the kinase domains are transfected into the DH10Bac cell line (GIBCO) and the transfected cells are plated on selective agar plates. Colonies without insertion of the fusion sequence into the viral genome (carried by the bacteria) are blue. Single, white colonies are picked and viral DNA (bacmid) is isolated from the bacteria by standard plasmid purification procedures. Sf9 cells or Sf21 cells (American Type Culture Collection) are then transfected in 25 cm^2 flasks with the viral DNA using Cellfectin reagent.
Protein expression in Sf9 cells: Virus-containing media is collected from the transfected cell culture and used for infection to increase its titer. Virus-containing media obtained after two rounds of infection is used for large-scale protein expression. For large-scale protein expression 100 cm^2 round tissue culture plates are seeded with 5×10^7 cells/plate and infected with 1 mL of virus-containing media (approximately 5 MOIs). After 3 days, the cells are scraped off the plate and centrifuged at 500 rpm for 5 minutes. Cell pellets from 10-20, 100 cm^2 plates are re-suspended in 50 mL of ice-cold lysis buffer (25 mM Tris-HCl, pH 7.5, 2 mM EDTA, 1% NP-40, 1 mM DTT, 1 mM PMSF). The cells are stirred on ice for 15 minutes and then centrifuged at 5,000 rpms for 20 minutes.
(§1) Purification of GST-tagged proteins: The centrifuged cell lysate is loaded onto a 2 mL glutathione-sepharose column (Pharmacia) and washed 3× with 10 mL of 25 mM Tris-HCl, pH 7.5, 2 mM EDTA, 1 mM DTT, 200 mM NaCl. The GST-tagged proteins are then eluted by 10 applications (1 mL each) of 25 mM Tris-HCl, pH 7.5, 10 mM reduced-glutathione, 100 mM NaCl, 1 mM DTT, 10% glycerol and stored at −70° C.
Measure of enzyme activity: Tyrosine protein kinase assays with either purified GST-wtRET or GST-RET-Men2B protein are carried out in a final volume of 30 μL containing 15 ng of either GST-RET or GST-RET-Men2B protein, 20 mM Tris-HCl, pH 7.5, 1 mM MnCl2, 10 mM MgCl2, 1 mM DTT, 3 μg/mL poly(Glu, Tyr) 4:1, 1% DMSO, 2.0 μM ATP (γ-[^33P]-ATP 0.1 μCi). The activity is assayed in the presence or absence of inhibitors, by measuring the incorporation of ^33P from [γ^33P] ATP into poly(Glu, Tyr) 4:1. […] Subsequently, 40 μL of the reaction mixture are transferred onto Immobilon-PVDF membrane (Millipore) previously soaked for 5 minutes with methanol, rinsed with water, then soaked for 5 minutes with 0.5% H3PO4 and mounted on vacuum manifold with disconnected vacuum source. After spotting all samples, vacuum is connected and each well rinsed with 200 μL 0.5% H3PO4. Membranes are removed and washed 4× on a shaker with 1.0% H3PO4, once with ethanol. Membranes are counted after drying at ambient temperature, mounting in Packard TopCount 96-well frame, and addition of 10 μl/well of Microscint™ (Packard). […] One unit of protein kinase activity is defined as 1 nmole of ^33P transferred from [γ^33P] ATP to the substrate protein/minute/mg of protein at 37° C.

ITD-Ba/F3 = conditions: Mus musculus, BaF3, 48 h, read-out: Inhibition of Flt-3 dependent Proliferation (ED50) ITD-mutant
Procedure: (§2) Inhibition of Proliferation in Flt-3 Dependent Ba/F3 Cells:
(§3) The compound's potential to penetrate cell membranes and exert antiproliferative effects is determined in Ba/F3 cells dependent on mutated [ITD or D835Y; Gilliland and Griffin, Blood, Vol. 100, No. 5, 153242 (2002)] Flt-3 receptor kinases.
(§4) A modified protocol of the YO-PRO-1 assay in a 96-well format is based on the use of the wild-type IL-3-dependent hematopoietic cell line Ba/F3 (DSMZ, Braunschweig, Germany) and the mutant sub-lines ITD-Ba/F3 or D835Y-Ba/F3 [Weisberg et al., Cancer Cell 1 (5):433-43 (2000)] expressing constitutively activating Flt-3 kinases.
(§5) ITD-FLT3- or D835Y-FLT3-Ba/F3 cells are diluted in fresh medium to a final concentration of 3×10^5 cells per ml and 50 μl aliquots seeded into 96-well plates (1.5×10^4 cells per well). Subsequently, 50 μl 2× compound solutions were added and cells incubated for 48 h. The anti-proliferative and apoptotic activity of a compound is initially tested in triplicates at 10 μM, 1 μM and 0.1 μM concentration on both cell lines. Cells treated with DMSO alone (added to a final concentration of 0.1%) always serves as a control. In addition, a plate blank value is routinely determined in a well containing only 100 μl of medium and no cells.
(§6) To further profile a compound an ED50 determination is done starting at 10 μM or 3 μM of the compound of interest. From those concentrations, stepwise nine dilutions are prepared reaching the final concentrations of 2 μM and 0.5 μM, respectively.
(§7) Activity of inhibitors is assessed by the YO-PRO-1 assay as previously described in [Idziorek et al., J. Immunol. […] Briefly, after the treatment period of 48 h, a 25 μl aliquot of a solution containing 100 mM sodium citrate, pH 4.0, 134 mM sodium chloride and 12.5 μM YO-PRO-1 dye (YO-PRO-1 iodide, #Y3603, Molecular Probes) is directly added to the 100 μl medium in the wells of the 96-well plate. That results in a final dye concentration of 2.5 μM, the plate is then incubated for 10 min at ambient temperature in the dark. The uptake of the YO-PRO-1 dye into cells is assessed by a first measurement using a Cytofluor II 96-well plate reader (PerSeptive Biosystems) with the following settings: Excitation (nm) 485120 and Emission (nm) 530/25, Gain 75. After this first reading, 25 μl of lysis buffer consisting of 20 mM sodium citrate, pH 4.0, 26.8 mM sodium chloride, 0.4% NP40, 20 mM EDTA and 20 mM is added to each well. Cell lysis is completed within 60 min at room temperature and total amount of YO-PRO-1 bound to DNA is determined by a second measurement using the Cytofluor II 96-well reader with the identical setting as described above.

D835Y-Ba/F3 = conditions: Mus musculus, BaF3, 48 h, read-out: Inhibition of Flt-3 dependent Proliferation (ED50) D835-mutant
Procedure: as §2, §3, §4, §5, §6, §7

Flt-3 = target: T2, Flt-3 (Homo sapiens, UniProt P36888); assay: Flt-3 kinase inhibition (GST-Flt-3, 33P incorporation into poly(Glu,Tyr)); type: biochemical
T2 construct: amino acids 563-993 of the cytoplasmic kinase domain of human Flt-3; made in house; host or cells: Sf9 insect cells (baculovirus, vector pFbacG01)
T2 sequence (P36888 563-993): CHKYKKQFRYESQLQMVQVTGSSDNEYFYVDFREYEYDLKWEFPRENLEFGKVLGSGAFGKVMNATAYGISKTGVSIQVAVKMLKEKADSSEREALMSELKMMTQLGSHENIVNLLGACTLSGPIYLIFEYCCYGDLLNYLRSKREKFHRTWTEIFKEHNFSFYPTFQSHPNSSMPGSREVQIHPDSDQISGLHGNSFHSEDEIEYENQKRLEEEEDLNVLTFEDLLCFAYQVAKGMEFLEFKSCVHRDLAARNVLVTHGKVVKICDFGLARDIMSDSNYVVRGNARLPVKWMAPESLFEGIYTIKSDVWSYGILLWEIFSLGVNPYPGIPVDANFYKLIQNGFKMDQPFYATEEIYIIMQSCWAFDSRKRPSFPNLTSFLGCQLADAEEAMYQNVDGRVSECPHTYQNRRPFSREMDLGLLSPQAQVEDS
Procedure: Flt-3 kinase inhibition is determined as follows: The baculovirus donor vector pFbacG01 (GIBCO) is used to generate a recombinant baculovirus expressing the amino acid region amino acids 563-993 of the cytoplasmic kinase domain of human Flt-3. The coding sequence for the cytoplasmic domain of Flt-3 is amplified by PCR from human c-DNA libraries (Clontech). The amplified DNA fragments and the pFbacG01 vector are made compatible for ligation by digestion with BamHI and HindIII. Ligation of these DNA fragments results in the baculovirus donor plasmid pFbacG01-Flt-3. The production of the viruses, the expression of proteins in Sf9 cells and the purification of the GST-fused proteins are performed as follows:
Production of virus: The baculovirus donor plasmid (pFbacG01-Flt-3) containing the Flt-3 kinase domain is transfected into the DH10Bac cell line (GIBCO) and the transfected cells are plated on selective agar plates. Colonies without insertion of the fusion sequence into the viral genome (carried by the bacteria) are blue. Single white colonies are picked and viral DNA (bacmid) is isolated from the bacteria by standard plasmid purification procedures. Sf9 or Sf21 cells (American Type Culture Collection) are then transfected in flasks with the viral DNA using Cellfectin reagent.
Protein expression in Sf9 cells: Virus containing media is collected from the transfected cell culture and used for infection to increase its titre. Virus containing media obtained after two rounds of infection is used for large-scale protein expression. For large-scale protein expression 100 cm^2 round tissue culture plates are seeded with 5×10^7 cells/plate and infected with 1 mL of virus-containing media (approx. 5 MOIs). After 3 days the cells are scraped off the plate and centrifuged at 500 rpm for 5 min. Cell pellets from 10-20, 100 cm^2 plates are resuspended in 50 mL of ice-cold lysis buffer (25 mM Tris-HCl, pH 7.5, 2 mM EDTA-1% NP-40. 1 mM DTT, 1 mM PMSF). The cells are stirred on ice for 15 min and then centrifuged at 5000 rpms for 20 min.
as §1, with “protein:” for “proteins:”, “three times” for “3×”, “protein is” for “proteins are”, “Glycerol” for “glycerol”
Measurement of enzyme activity: Tyrosine protein kinase assays with purified GST-Flt-3 protein are carried out in a final volume of 30 μL containing 200-1800 ng of enzyme protein (depending on the specific activity), 20 mM Tris-HCl, pH 7.6, 3 mM MnCl2, 3 mM MgCl2, 1 mM DTT, 10 μM Na3VO4, 3 μg/mL poly(Glu, Tyr) 4:1, 1% DMSO, 8.0 μM ATP and 0.1 μCi [γ^33 P] ATP. The activity is assayed in the presence or absence of inhibitors, by measuring the incorporation of ^33P from [γ^33P] ATP into the poly(Glu,Tyr) substrate. The assay (30 μL) is carried out in 96-well plates at ambient temperature for 20 min and terminated by the addition of 20 μL of 125 mM EDTA. Subsequently, 40 μL of the reaction mixture is transferred onto Immobilon-PVDF membrane (Millipore, Bedford, Mass., USA) previously soaked for 5 min with methanol, rinsed with water, then soaked for 5 min with 0.5% H3PO4 and mounted on vacuum manifold with disconnected vacuum source. After spotting all samples, vacuum is connected and each well rinsed with 200 μL 0.5% H3PO4. Membranes are removed and washed 4× on a shaker with 1.0% H3PO4, once with ethanol. Membranes are counted after drying at ambient temperature, mounting in Packard TopCount 96-well frame, and addition of 10 μL/well of Microscint™ (Packard). IC50 values are calculated by linear regression analysis of the percentage inhibition of each compound in duplicate, at four concentrations (usually 0.01, 0.1, 1 and 10 μM). One unit of protein kinase activity is defined as 1 nmole of ^33P transferred from [γ3P] […]

| SMILES | IC50 (RET) [nM] | EC50 (ITD-Ba/F3) [nM] | EC50 (D835Y-Ba/F3) [nM] | melting point [°C] | IC50 (Flt-3) [nM] |
| --- | --- | --- | --- | --- | --- |
| CN1CCN(Cc2cc(NC(=O)Nc3ccc(Oc4cc(N)ncn4)cc3)cc(C(F)(F)F)c2)CC1 [1-[4-(6-Amino-pyrimidin-4-yloxy)-phenyl]-3-[3-(4-methyl-piperazin-1-ylmethyl)-5-trifluoromethyl-phenyl]-urea] | 260 | – | – | – | – |
| CNc1cc(Oc2ccc(NC(=O)Nc3cc(CN4CCN(C)CC4)cc(C(F)(F)F)c3)cc2)ncn1 [1-[4-(6-Methylamino-pyrimidin-4-yloxy)-phenyl]-3-[3-(4-methyl-piperazin-1-ylmethyl)-5-trifluoromethyl-phenyl]-urea] | 590 | – | – | – | – |
| CNc1nccc(Oc2ccc(NC(=O)Nc3ccc(CN4CCN(C(C)C)CC4)c(C(F)(F)F)c3)cc2)n1 [Example 46, N-[4-(2-Methylamino-pyrimidin-4-yloxy)-phenyl]-N′-[4-(4-isopropylpiperazin-1-ylmethyl)-3-trifluoromethyl-phenyl]-urea] | – | < 0.2 | 3.9 | – | – |
| CNc1cc(Oc2ccc(NC(=O)Nc3cc(CN(C)C)cc(C(F)(F)F)c3)cc2)ncn1 [1-(3-Dimethylaminomethyl-5-trifluoromethyl-phenyl)-3-[4-(6-methylamino-pyrimidin-4-yloxy)-phenyl]-urea] | 110 | – | – | – | – |
| CNc1nccc(Oc2ccc(NC(=O)Nc3ccc(CN4CCN(C(C)(C)C)CC4)c(C(F)(F)F)c3)cc2)n1 [Example 49, N-[4-(2-Methylamino-pyrimidin-4-yloxy)-phenyl]-N′-[4-(4-tert-butylpiperazinyl-methyl)-3-trifluoromethyl-phenyl]-urea] | – | 0.1 | 11.7 | 257 to 258 | – |
| CCN(CC)Cc1cc(NC(=O)Nc2ccc(Oc3cc(NC)ncn3)cc2)cc(C(F)(F)F)c1 [Example 11, N-[4-(6-Methylamino-pyrimidin-4-yloxy)-phenyl]-N′-(3-diethylaminomethyl-5-trifluoromethyl-phenyl)-urea] | – | – | – | 68 to 70 | 230 |
| Cc1ncn(Cc2ccc(NC(=O)Nc3ccc(Oc4cc(Cl)ncn4)cc3)cc2C(F)(F)F)c1C [Example 23, N-[4-(6-Chloro-pyrimidin-4-yloxy)-phenyl]-N′-[4-(4,5-dimethylimidazol-1-ylmethyl)-3-trifluoromethyl-phenyl]-urea] | – | – | – | 195 to 196 | 1300 |
| CNc1cc(Oc2ccc(NC(=O)Nc3ccc(-c4ccccn4)c(C(F)(F)F)c3)cc2)ncn1 [Example 61, 1-[4-(6-Methylamino-pyrimidin-4-yloxy)-phenyl]-3-(4-pyridin-2-yl-3-trifluoromethyl-phenyl)-urea] | – | – | – | 114 to 118 | 490 |
